Test results published in ChEMBL document CHEMBL4616581, “Current scenario of artemisinin and its analogues for antimalarial activity” (Eur J Med Chem, 2019).
Converted amounts (≈) assume the structure as drawn.

Legend:
Assay type in all cases: functional, organism-based
[1] = test system: Plasmodium falciparum; assay: Antimalarial activity against Plasmodium falciparum D6
[2] = test system: Plasmodium falciparum; assay: Antimalarial activity against Plasmodium falciparum W2
[3] = test system: Plasmodium falciparum; assay: Antimalarial activity against blood stages of chloroquine-resistant Plasmodium falciparum K1
[4] = test system: Plasmodium falciparum; assay: Antimalarial activity against Plasmodium falciparum W2 after 24 hrs by in presence of [3H]hypoxanthine
[5] = test system: Plasmodium falciparum; assay: Antimalarial activity against Plasmodium falciparum D6 after 24 hrs by in presence of [3H]hypoxanthine
[6] = test system: Plasmodium falciparum; assay: Antimalarial activity against Plasmodium falciparum NF54 after 48 hrs by spectrophotometric analysis; details: NF54, 48 h
[7] = test system: Plasmodium falciparum; assay: Antimalarial activity against Plasmodium falciparum K1 by [3H]-hypoxanthine incorporation assay

COC(=O)CC[C@H](OC1O[C@@H]2O[C@]3(C)CC[C@H]4[C@H](C)CC[C@@H]([C@H]1C)[C@@]24OO3)c1ccc(Cl)cc1 (some centres not stated) showed an IC50 [1] of 0.903 ng/mL (≈ 1.82 nM) and an IC50 [2] of 0.794 ng/mL.

C[C@H]1[C@@H](OCc2ccc(C(=O)O)cc2)O[C@@H]2C[C@]3(C)CC[C@H]4[C@H](C)CC[C@@H]1[C@@]24OO3 showed an IC50 [3] of 1.38 ng/mL.

C[C@H]1[C@@H](OC2O[C@H](CO)[C@@H](O)[C@H](O)[C@H]2O)O[C@@H]2O[C@]3(C)CC[C@H]4[C@H](C)CC[C@@H]1[C@@]24OO3 (some centres not stated) showed an IC50 [4] of 34.1 ng/mL and an IC50 [5] of 122 ng/mL.

COC(=O)CC[C@@H](OC1O[C@@H]2O[C@]3(C)CC[C@H]4[C@H](C)CC[C@@H]([C@H]1C)[C@@]24OO3)c1ccc(Cl)cc1 (some centres not stated) gave an IC50 [1] of 0.727 ng/mL (≈ 1.47 nM) and an IC50 [2] of 0.629 ng/mL.

With C[C@H]1[C@@H](O[C@H](C)CC(=O)O)O[C@@H]2O[C@]3(C)CC[C@H]4[C@H](C)CC[C@@H]1[C@@]24OO3 the IC50 [4] was 4.42 ng/mL and the IC50 [5] was 36.5 ng/mL.

For COc1ccc(OC)c(COC2O[C@@H]3O[C@]4(C)CC[C@H]5[C@H](C)CC[C@H]([C@@]35OO4)[C@@]2(C)O)c1 (some centres not stated), the IC50 [6] was 125 nM.

Work on COC(=O)CCC(OC1O[C@@H]2O[C@]3(C)CC[C@H]4[C@H](C)CC[C@@H]([C@H]1C)[C@@]24OO3)c1ccc(Cl)cc1 (some centres not stated) yielded an IC50 [1] of 0.391 ng/mL (≈ 0.79 nM) and an IC50 [2] of 0.656 ng/mL.

C[C@H]1[C@@H](C(F)(F)F)O[C@@H]2O[C@]3(C)CC[C@H]4[C@H](C)CC[C@@H]1[C@@]24OO3 showed an IC50 [2] of 6.2 nM.

Work on CC[C@H]1O[C@@H]2O[C@]3(C)CC[C@H]4[C@H](C)CC[C@@H]([C@H]1C)[C@@]24OO3 yielded an IC50 [1] of 1.09 ng/mL (≈ 3.68 nM) and an IC50 [2] of 0.29 ng/mL.

Work on C[C@@H]1CC[C@H]2[C@@H](C)C(OC(=O)c3ccc([N+](=O)[O-])cc3)O[C@@H]3O[C@]4(C)CC[C@@H]1[C@]32OO4 (some centres not stated) yielded an IC50 [6] of 8.54 nM.

With CCO[C@H]1O[C@@H]2C[C@]3(C)CC[C@H]4[C@H](C)CC[C@@H]([C@H]1C)[C@@]24OO3 the IC50 [3] was 12.8 nM.

With C[C@@H]1CC[C@H]2[C@H](C[C@@]3(CCCCCCC4C(=O)O[C@@H]5O[C@]6(C)CC[C@H]7[C@H](C)CC[C@@H]4[C@@]57OO6)C(=O)O[C@@H]4O[C@]5(C)CC[C@H]6[C@H](C)CC[C@@H]3[C@@]46OO5)C(=O)O[C@@H]3O[C@]4(C)CC[C@@H]1[C@]32OO4 (some centres not stated) the EC50 [7] was 2.4 nM.

With C[C@@H]1CC[C@H]2[C@H](C[C@@]3(CCCCCCC[C@]4(C[C@H]5C(=O)O[C@@H]6O[C@]7(C)CC[C@H]8[C@H](C)CC[C@@H]5[C@@]68OO7)C(=O)O[C@@H]5O[C@]6(C)CC[C@H]7[C@H](C)CC[C@@H]4[C@@]57OO6)C(=O)O[C@@H]4O[C@]5(C)CC[C@H]6[C@H](C)CC[C@@H]3[C@@]46OO5)C(=O)O[C@@H]3O[C@]4(C)CC[C@@H]1[C@]32OO4 the EC50 [7] was 20 nM.

Work on C[C@H]1[C@@H](OC[C@H](C)C(=O)O)O[C@@H]2O[C@]3(C)CC[C@H]4[C@H](C)CC[C@@H]1[C@@]24OO3 yielded an IC50 [4] of 8.33 ng/mL and an IC50 [5] of 28.7 ng/mL.

C[C@@H]1CC[C@@H]2[C@]34OO[C@@](C)(CC[C@@H]13)O[C@H]4OC(OCc1ccc3c(c1)OCO3)[C@]2(C)O (some centres not stated) gave an IC50 [6] of 110 nM.

With C[C@@H]1CC[C@H]2[C@H](C[C@@]3(CCCCCC[C@]4(C[C@H]5C(=O)O[C@@H]6O[C@]7(C)CC[C@H]8[C@H](C)CC[C@@H]5[C@@]68OO7)C(=O)O[C@@H]5O[C@]6(C)CC[C@H]7[C@H](C)CC[C@@H]4[C@@]57OO6)C(=O)O[C@@H]4O[C@]5(C)CC[C@H]6[C@H](C)CC[C@@H]3[C@@]46OO5)C(=O)O[C@@H]3O[C@]4(C)CC[C@@H]1[C@]32OO4 the EC50 [7] was 5.8 nM.

For C[C@@H]1CC[C@H]2[C@](C)(Br)[C@@H](Nc3nccs3)O[C@@H]3O[C@]4(C)CC[C@@H]1[C@]32OO4, the IC50 [1] was 0.91 ng/mL (≈ 2.04 nM) and the IC50 [2] was 0.21 ng/mL.

Molecule C[C@@H]1CC[C@H]2[C@](C)(Br)[C@@H](Nc3cccc(F)c3)O[C@@H]3O[C@]4(C)CC[C@@H]1[C@]32OO4 has an IC50 [1] of 0.16 ng/mL (≈ 0.351 nM) and an IC50 [2] of under 0.16 ng/mL.

With C[C@@H]1CC[C@H]2[C@@H](C)C(OC(=O)c3cccc4c3OCO4)O[C@@H]3O[C@]4(C)CC[C@@H]1[C@]32OO4 (some centres not stated) the IC50 [6] was 8.08 nM.

COC(=O)[C@H](C)CO[C@H]1O[C@@H]2O[C@]3(C)CC[C@H]4[C@H](C)CC[C@@H]([C@H]1C)[C@@]24OO3 was tested, and the IC50 [4] was 0.057 ng/mL and the IC50 [5] was 2.15 ng/mL.

For COC(=O)C[C@@H](C)O[C@H]1O[C@@H]2O[C@]3(C)CC[C@H]4[C@H](C)CC[C@@H]([C@H]1C)[C@@]24OO3, the IC50 [4] was 0.071 ng/mL and the IC50 [5] was 0.44 ng/mL.

For C[C@@H]1CC[C@H]2[C@@H](C)C(O)O[C@@H]3C[C@]4(C)CC[C@@H]1[C@]32OO4 (some centres not stated), the IC50 [3] was 0.69 ng/mL.

For C[C@@H]1CC[C@H]2[C@](C)(Br)[C@@H](Nc3ccccn3)O[C@@H]3O[C@]4(C)CC[C@@H]1[C@]32OO4, the IC50 [1] was 7.72 ng/mL (≈ 17.6 nM) and the IC50 [2] was 1.19 ng/mL.

C[C@H]1[C@@H](O[C@@H]2O[C@H](CO)[C@@H](O[C@@H]3O[C@H](CO)[C@@H](O)[C@H](O)[C@H]3O)[C@H](O)[C@H]2O)O[C@@H]2O[C@]3(C)CC[C@H]4[C@H](C)CC[C@@H]1[C@@]24OO3 gave an IC50 [4] of 171 ng/mL and an IC50 [5] of 710 ng/mL.
